Results from patent publication EP2562253B1 (priority 2010, dated 2011).
Where two headings read alike, the source gives them in different places.

Assays:
wild-type enzyme RBS [1] = assay type: biochemical, Burkholderia sp. YT strain
wild-type enzyme RBS [2] = experiment: Reaction inhibition of wild-type enzyme RBS by various compounds; assay type: biochemical, Burkholderia sp. YT strain; details: 3-quinuclidinone 5 mM, NADPH 0.25 mM, pH 6.5, 30°C
Experimental: A cell-free extract of the wild-type enzyme was obtained as in Reference Example 4. The 3-quinuclidinone reduction activity of this cell-free extract was measured, and given as activity without inhibitor. The cell-free extract was added to 100 mM phosphate buffer (pH 6.5) containing the compounds shown in Table 2, 3-quinuclidinone (5 mM) and the coenzyme NADPH (0.25 mM), and reacted for 1 minute at 30°C, and reduction activity of 3-quinuclidinone was calculated from the rate of decrease in absorbancy at 340 nm.
Relative activity was calculated by the following formula, and used as an indicator of reaction inhibition by the various compounds. Relative activity (%) = [enzyme activity in presence of compound]/[enzyme activity without inhibitor] × 100 [formula]

Compound | Remaining activity (%) (wild-type enzyme RBS [1]; pH 6.5) | Remaining activity (%) (wild-type enzyme RBS [1]; pH 6.5, 310000 µM) | Remaining activity (%) (wild-type enzyme RBS [1]; pH 6.5, 620000 µM) | Relative activity (%) (wild-type enzyme RBS [2]; additive 0.31 M, 310000 µM) | Relative activity (%) (wild-type enzyme RBS [2]; additive 0.62 M, 620000 µM)
OC(CCCl)c1cccs1 (stereo not drawn) [3-Chloro-1-(2-thienyl)propan-1-ol] | 0% | – | – | – | –
O=C(CCCl)c1cccs1 [3-Chloro-1-(2-thienyl)propan-1-one] | 0% | – | – | – | –
Cl.O=C1CN2CCC1CC2 [3-Quinuclidinone hydrochloride] | – | 73% | 44% | – | –
CC(C)=O [Acetone] | 80% | – | – | – | –
CC(=O)c1ccccc1 [Acetophenone] | 81% | – | – | – | –
CC(=O)c1cccs1 [Acetylthiophene] | 72% | – | – | – | –
O=C(CCl)c1ccccc1 [Phenacyl chloride] | 0% | – | – | – | –
O=C(CCl)c1cccc(Cl)c1 [m-chlorophenacyl chloride] | 0% | – | – | – | –
Potassium chloride | – | 46% | 26% | 14% | 5%
Sodium chloride | – | 46% | 24% | 15% | 3%
Sodium sulfate | – | 76% | 79% | 31% | 17%
